Data taken from patent US8598374B2, “GPR120 receptor agonists and uses thereof” (Metabolex, Inc, priority 2008, dated 2013).

Molecular target: T1, human GPR120 (Homo sapiens, UniProt Q5NUL3)
T1 construct: Flag (DYKDDDDK) (N); host or cells: HEK293 cells co-expressing Gqi5
T1 sequence (Q5NUL3 1-361): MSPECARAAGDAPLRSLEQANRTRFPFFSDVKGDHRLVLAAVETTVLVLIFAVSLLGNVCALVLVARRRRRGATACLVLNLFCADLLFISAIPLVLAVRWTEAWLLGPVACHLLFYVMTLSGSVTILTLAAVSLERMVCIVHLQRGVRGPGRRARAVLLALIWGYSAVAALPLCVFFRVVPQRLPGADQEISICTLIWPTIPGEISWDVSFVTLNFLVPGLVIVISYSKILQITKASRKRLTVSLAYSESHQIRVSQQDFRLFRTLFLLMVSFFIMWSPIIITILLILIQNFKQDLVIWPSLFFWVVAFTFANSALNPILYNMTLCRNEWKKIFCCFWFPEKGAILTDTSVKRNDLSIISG
Assay: Intracellular Ca2+ assay (FLIPR Calcium 4, Flexstation) in human GPR120 stable cell line
Assay type: cell-based
Conditions: % activity at 5 μM compared to the maximal activity of GW9508 at 6.7 μM; HEK293 cells co-expressing Gqi5

% Activity (GW9508 Reference Compound) [%]	Structure (SMILES)
72.21	CC(Cc1ccc(OCc2cccc3c2CC(C)(C)O3)cc1)C(=O)O (stereo not drawn) [Example 17, 3-(4-((2,2-dimethyl-2,3-dihydrobenzofuran-4-yl)methoxy)phenyl)-2-methylpropanoic acid]

Tested on: C57BL/6J mice
Assay: Oral glucose tolerance test
Assay type: in vivo
Conditions: Table 2; 100 mg/kg oral gavage, 3 g/kg oral glucose, mice fasted 6 hours
Method: 8-10 week old male C57BL/6J mice (Harlan) were maintained on regular chow diet from Harlan (2018 Teklad Global). On the day of the experiment mice were fasted for 6 hours, then randomized into groups (n=10-15) to receive the tested GPR120 agonist at doses ranging from 100 mg/kg or the vehicle (1% CMC, 2% TWEEN 80). Compounds were delivered orally via gavage at 10 mL/kg. Blood glucose levels were measured by glucometer (Ascensia Elite XL, Bayer) at time −30 minutes before administration of compound. Blood glucose was measured again after 30 minutes (at time 0), and then the mice were dosed orally with 3 g/kg glucose at 10 mL/kg. […]
Glucose levels were plotted against time, and the incremental area under the curve (AUC) of the glucose excursion was determined from time 0 using Graphpad Prism 5.01. Outliers were excluded using Tukey's box plot outlier test, and statistical significance of differences in AUC of compound treatment compared to vehicle was determined by non-parametric Kruskal-Wallis test with Dunn's post test.
Tables 2 and 3 below show the mean percentage inhibition of the glucose excursion for the fifteen animals tested in each group. The compounds were tested at 100 mg/kg and the levels of blood glucose were determined in the presence and absence of the tested compounds. […]

Structure (SMILES)	% reduction AUC glucose excursion at 100 mg/kg [%]
CC(Cc1ccc(OCc2cc(Cl)cc3c2OC(C)(C)C3)c(F)c1)C(=O)O (stereo not drawn) [Example 10, 3-(4-((5-chloro-2,2-dimethyl-2,3-dihydrobenzofuran-7-yl)methoxy)-3-fluorophenyl)-2-methylpropanoic acid]	58.1

Molecular target: T1, human GPR120
Assay: Intracellular Ca2+ assay (FLIPR Calcium 4, Flexstation) in human GPR120 stable cell line
Assay type: cell-based
Conditions: % activity at 2.5 μM compared to the maximal activity of the compound of Example 25 at 2.5 μM; HEK293 cells co-expressing Gqi5
Method in brief: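 HEK293 cells co-expressing Gqi5 and stably expressing Flag-tagged human GPR120 were seeded at 70,000 cells per well in poly-D-lysine coated 96 well plates and loaded with FLIPR Calcium 4 dye for 50 minutes at 37° C. On a Flexstation, compound-induced fluorescence (excitation 485 nm, emission 525) was recorded for 90 seconds. Percent activity was expressed against a reference agonist's maximal activity at 2.5 μM, set as 100%.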

% Activity (Ex. 25 Reference Compound) [%]	Structure (SMILES)
115.86	CCc1cc(OCc2cc(F)cc3c2OC(C)(C)C3)c(F)cc1CCC(=O)O [Example 220, 3-(2-ethyl-5-fluoro-4-((5-fluoro-2,2-dimethyl-2,3-dihydrobenzofuran-7-yl)methoxy)phenyl)propanoic acid]
119.11	[2H]C([2H])(Oc1ccc(CCC(=O)O)c(CC)c1F)c1cc(F)cc2c1OC(C)(C)C2 [Example 228, 3-(4-(dideuterio(5-fluoro-2,2-dimethyl-2,3-dihydrobenzofuran-7-yl)methoxy)-3-fluoro-2-ethylphenyl)propanoic acid]
86.25	[2H]C([2H])(Oc1ccc(CC(C)C(=O)O)cc1F)c1cc(F)cc2c1OC(C)(C)C2 (stereo not drawn) [Example 230, 3-(4-(dideuterio(5-fluoro-2,2-dimethyl-2,3-dihydrobenzofuran-7-yl)methoxy)-3-fluorophenyl)-2-methylpropanoic acid]
101.01	[2H]C([2H])(Oc1ccc(CC(C)C(=O)O)cc1C(F)(F)F)c1cc(F)cc2c1OC(C)(C)C2 (stereo not drawn) [Example 231, 3-(4-(dideuterio(5-fluoro-2,2-dimethyl-2,3-dihydrobenzofuran-7-yl)methoxy)-3-(trifluoromethyl)phenyl)-2-methylpropanoic acid]
159.62	[2H]C([2H])(C(=O)O)C([2H])([2H])c1ccc(OCc2cc(Cl)cc3c2OC(C)(C)C3)c(F)c1 [Example 241, 3-(4-((5-chloro-2,2-dimethyl-2,3-dihydrobenzofuran-7-yl)methoxy)-3-fluorophenyl)-2,2,3,3-tetradeuteriopropanoic acid]
155.23	[2H]C([2H])(C(=O)O)C([2H])([2H])c1ccc(OCc2cc(F)cc3c2OC(C)(C)C3)c(F)c1CC [Example 243, 3-(2-ethyl-3-fluoro-4-((5-fluoro-2,2-dimethyl-2,3-dihydrobenzofuran-7-yl)methoxy)phenyl)-2,2,3,3-tetradeuteriopropanoic acid]
10.23	CC1(C)Cc2cc(Cl)cc(COc3ccccc3CCC(=O)O)c2O1 [Example 250, 3-(2-((5-chloro-2,2-dimethyl-2,3-dihydrobenzofuran-7-yl)methoxy)phenyl)propanoic acid]
61.14	CC(Cc1cccc(OCc2cc(Cl)cc3c2OC(C)(C)C3)c1)C(=O)O (stereo not drawn) [Example 251, 3-(3-((5-chloro-2,2-dimethyl-2,3-dihydrobenzofuran-7-yl)methoxy)phenyl)-2-methylpropanoic acid]
146.14	Cc1cc(CCC(=O)O)c(C)c(C)c1OCc1cc(F)cc2c1OC(C)(C)C2 [Example 254, 3-(4-((5-fluoro-2,2-dimethyl-2,3-dihydrobenzofuran-7-yl)methoxy)-2,3,5-trimethylphenyl) propanoic acid]
124.62	CC(C)Oc1ccc(Cl)cc1COc1cc2c(cc1F)C(CC(=O)O)CC2 (stereo not drawn) [Example 257, 2-(5-((5-chloro-2-isopropoxybenzyl)oxy)-6-fluoro-2,3-dihydro-1H-inden-1-yl)acetic acid]
139.95	CC(C)Oc1ccc(Cl)cc1COc1ccc2c(c1)CCC2CC(=O)O (stereo not drawn) [Example 258, 2-(5-((5-chloro-2-isopropoxybenzyl)oxy)-2,3-dihydro-1H-inden-1-yl)acetic acid]
118.5	CC(C)Oc1ncccc1COc1ccc2c(c1)CCC2CC(=O)O (stereo not drawn) [Example 259, 2-(5-((2-isopropoxypyridin-3-yl)methoxy)-2,3-dihydro-1H-inden-1-yl)acetic acid]
16.67	CC(Cc1cc(F)c(OCc2cccc3cn[nH]c23)c(F)c1)C(=O)O (stereo not drawn) [Example 260, 3-(4-((1H-indazol-7-yl)methoxy)-3,5-difluorophenyl)-2-methylpropanoic acid]
108.78	Cc1nc2cccc(COc3c(F)cc(CC(C)C(=O)O)cc3F)c2o1 (stereo not drawn) [Example 261, 3-(3,5-difluoro-4-((2-methylbenzo[d]oxazol-7-yl)methoxy)phenyl)-2-methylpropanoic acid]
137.39	CC1(C)Cc2cc(F)cc(COc3ccc4c(CC(=O)O)coc4c3)c2O1 [Example 262, 2-(6-((5-fluoro-2,2-dimethyl-2,3-dihydrobenzofuran-7-yl)methoxy)benzofuran-3-yl)acetic acid]
5.98	CC1(C)Cc2cc(F)cc(COc3ccc4c(CC(=O)O)cc(=O)oc4c3)c2O1 [Example 263, 2-(7-((5-fluoro-2,2-dimethyl-2,3-dihydrobenzofuran-7-yl)methoxy)-2-oxo-2H-chromen-4-yl)acetic acid]
110.24	CC(Cc1ccc(OCc2cc(F)cc3c2OC(C)(C)C3)cc1)C(=O)NO (stereo not drawn) [Example 264, 3-(4-((5-fluoro-2,2-dimethyl-2,3-dihydrobenzofuran-7-yl)methoxy)phenyl)-N-hydroxy-2-methylpropanamide]
42.73	CC(C)C(CC(=O)O)c1ccc(OCc2cc(Cl)cc3c2OC(C)(C)C3)cc1 (stereo not drawn) [Example 266, 3-(4-((5-chloro-2,2-dimethyl-2,3-dihydrobenzofuran-7-yl)methoxy)phenyl)-4-methylpentanoic acid]
140.82	Cc1c(CCC(=O)O)ccc(OCc2cc(Cl)cc3c2CC(C)(C)O3)c1C [Example 267, 3-(4-((6-chloro-2,2-dimethyl-2,3-dihydrobenzofuran-4-yl)methoxy)-2,3-dimethylphenyl)propanoic acid]
